In US20110313046A1, “COMBINATION THERAPY WITH LISDEXAMPHETAMINE AND EXTENDED RELEASE GUANFACINE” (priority 2010, published 2011):
Read-outs that look alike come from different tables or passages of the source.

What was measured:
CYP450 system = conditions: cited from earlier work
[1] = Adverse events and safety, crossover drug-drug interaction study; format: in vivo, healthy adults; conditions: TEAEs by treatment; single oral dose (SPD503 4 mg, VYVANSE 50 mg)
Method: A “treatment-emergent adverse event” (TEAE) is an AE that occurred or worsened during the on-treatment period.
A “non-treatment-emergent adverse event” is an AE that occurred during the pre-treatment period or the post-treatment period.
(§1) An open-label, randomized, single-center, 3-period, crossover, drug-drug interaction study in 42 healthy adults (18-45 years old) was performed. Subjects received three single, oral dose treatments: 4 mg extended release guanfacine, 50 mg lisdexamphetmaine, and 4 mg extended release guanfacine in combination with 50 mg lisdexamphetmaine. Subjects underwent the three treatment periods with a 7-day washout between each treatment.

[2] = Lisdexamphetamine plasma pharmacokinetics, crossover drug-drug interaction study; format: in vivo, healthy adults; design: lisdexamphetamine plasma concentration, Mean / lisdexamphetamine plasma concentration, Median / lisdexamphetamine plasma concentration, Min / lisdexamphetamine plasma concentration, Max: unit not given here; conditions: for AUC / AUC(0-t) / Cmax / Tmax / Vd/F / CL/F: po, 50 mg
Method: as §1

[3] = d-Amphetamine plasma pharmacokinetics, crossover drug-drug interaction study; format: in vivo, healthy adults
Method: as §1

[4] = Guanfacine plasma pharmacokinetics, crossover drug-drug interaction study; design: species or system healthy adults; conditions: human, in vivo
Method: as §1

[5] = young intact rhesus monkeys; cited from earlier work
CYP3A4 = CYP3A4 (Homo sapiens, UniProt P08684); conditions: cited from earlier work
[6] = single oral dose 50 mg, weight normalized
[7] = time 0.5, single oral dose 50 mg
[8] = time 1.5, single oral dose 50 mg
[9] = time 12, single oral dose 50 mg
[10] = time 24, single oral dose 50 mg
[11] = time 30, single oral dose 50 mg
[12] = time 48, single oral dose 50 mg
[13] = time 72, single oral dose 50 mg

Sequence of CYP3A4 (P08684 whole entry, species assumed): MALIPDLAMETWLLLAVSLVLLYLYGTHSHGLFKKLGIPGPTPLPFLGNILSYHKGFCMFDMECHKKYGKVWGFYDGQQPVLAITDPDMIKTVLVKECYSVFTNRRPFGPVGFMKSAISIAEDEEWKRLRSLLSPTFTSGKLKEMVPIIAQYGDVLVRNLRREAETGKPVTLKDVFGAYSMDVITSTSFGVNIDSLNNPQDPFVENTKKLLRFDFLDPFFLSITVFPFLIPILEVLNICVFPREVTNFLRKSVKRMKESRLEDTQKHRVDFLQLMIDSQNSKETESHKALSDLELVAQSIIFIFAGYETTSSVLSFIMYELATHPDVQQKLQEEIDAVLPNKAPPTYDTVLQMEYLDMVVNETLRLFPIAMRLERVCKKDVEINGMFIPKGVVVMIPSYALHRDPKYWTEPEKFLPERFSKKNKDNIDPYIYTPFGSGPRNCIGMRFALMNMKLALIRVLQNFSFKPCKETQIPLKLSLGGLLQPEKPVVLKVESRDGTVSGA

C[C@@H](Cc1ccccc1)NC(=O)[C@@H](N)CCCCN [VYVANSE Alone, lisdexamphetamine dimesylate]
induction or inhibition of the CYP450 system (CYP450 system): neither an inducer nor inhibitor | metabolism by the CYP450 system (CYP450 system): not metabolized by the CYP450 system | TEAE: Any Event [1]: 8 (19.5) n (%) | TEAE: Arrhythmia supraventricular [1]: 1 (2.4) n (%) | TEAE: Cardiac disorders [1]: 3 (7.3) n (%) | TEAE: Diarrhoea [1]: 0 (0.0) n (%) | TEAE: Dizziness [1]: 3 (7.3) n (%) | TEAE: Dizziness postural [1]: 1 (2.4) n (%) | TEAE: Dry mouth [1]: 1 (2.4) n (%) | TEAE: Dysmenorrhoea [1]: 1 (2.4) n (%) | TEAE: Flushing [1]: 0 (0.0) n (%) | TEAE: Gastrointestinal disorders [1]: 2 (4.9) n (%) | TEAE: General disorders and administration site conditions [1]: 0 (0.0) n (%) | TEAE: Headache [1]: 2 (4.9) n (%) | TEAE: Nausea [1]: 1 (2.4) n (%) | TEAE: Nervous system disorders [1]: 4 (9.8) n (%) | TEAE: Nervousness [1]: 2 (4.9) n (%) | TEAE: Non-cardiac chest pain [1]: 0 (0.0) n (%) | TEAE: Orthostatic hypotension [1]: 0 (0.0) n (%) | TEAE: Palpitations [1]: 1 (2.4) n (%) | TEAE: Paraesthesia [1]: 0 (0.0) n (%) | TEAE: Psychiatric disorders [1]: 2 (4.9) n (%) | TEAE: Psychomotor hyperactivity [1]: 1 (2.4) n (%) | TEAE: Reproductive system and breast disorders [1]: 1 (2.4) n (%) | TEAE: Supraventricular extrasystoles [1]: 0 (0.0) n (%) | TEAE: Tachycardia [1]: 1 (2.4) n (%) | TEAE: Vascular disorders [1]: 0 (0.0) n (%) | TEAE: Wandering pacemaker [1]: 1 (2.4) n (%) | mean lisdexamphetamine plasma concentrations, alone compared with co-administration ([2]; FIG. 3): essentially identical | AUC ([2]; human, plasma, single oral dose 50 mg, read-out: lisdexamphetamine AUCinfo, Geo Mean): 32.4 ng·h/mL | AUC ([2]; human, plasma, single oral dose 50 mg, read-out: lisdexamphetamine AUCinfo, Mean): 36.1 ng·h/mL | AUC ([2]; human, plasma, single oral dose 50 mg, read-out: lisdexamphetamine AUCinfo, Median): 33.2 ng·h/mL | AUC(0-t) ([2]; human, plasma, single oral dose 50 mg, read-out: lisdexamphetamine AUClast, Geo Mean): 28.3 ng·h/mL | AUC(0-t) ([2]; human, plasma, single oral dose 50 mg, read-out: lisdexamphetamine AUClast, Mean): 32.1 ng·h/mL | AUC(0-t) ([2]; human, plasma, single oral dose 50 mg, read-out: lisdexamphetamine AUClast, Median): 27.2 ng·h/mL | Cmax ([2]; human, plasma, single oral dose 50 mg, read-out: lisdexamphetamine Cmax, Geo Mean): 22.5 ng/mL | Cmax ([2]; human, plasma, single oral dose 50 mg, read-out: lisdexamphetamine Cmax, Mean): 26.1 ng/mL | Cmax ([2]; human, plasma, single oral dose 50 mg, read-out: lisdexamphetamine Cmax, Median): 25.2 ng/mL | Tmax ([2]; human, plasma, single oral dose 50 mg, read-out: lisdexamphetamine Tmax, Geo Mean): 1.1 h | Tmax ([2]; human, plasma, single oral dose 50 mg, read-out: lisdexamphetamine Tmax, Mean): 1.1 h | Tmax ([2]; human, plasma, single oral dose 50 mg, read-out: lisdexamphetamine Tmax, Median): 1 h | Vd/F ([2]; human, plasma, single oral dose 50 mg, read-out: lisdexamphetamine VZ/F, Geo Mean): 1090 L | Vd/F ([2]; human, plasma, single oral dose 50 mg, read-out: lisdexamphetamine VZ/F, Mean): 1270 L | Vd/F ([2]; human, plasma, single oral dose 50 mg, read-out: lisdexamphetamine VZ/F, Median): 1040 L | CL/F ([2]; human, plasma, single oral dose 50 mg, weight normalized, read-out: lisdexamphetamine CL/F, Geo Mean (converted)): 339 mL/min/kg | CL/F ([2]; human, plasma, single oral dose 50 mg, weight normalized, read-out: lisdexamphetamine CL/F, Mean (converted)): 362 mL/min/kg | CL/F ([2]; human, plasma, single oral dose 50 mg, weight normalized, read-out: lisdexamphetamine CL/F, Median (converted)): 345 mL/min/kg | Vd/F ([2]; human, plasma, single oral dose 50 mg, weight normalized, read-out: lisdexamphetamine VZ/F, Geo Mean): 14.4 L/kg | Vd/F ([2]; human, plasma, single oral dose 50 mg, weight normalized, read-out: lisdexamphetamine VZ/F, Mean): 16 L/kg | Vd/F ([2]; human, plasma, single oral dose 50 mg, weight normalized, read-out: lisdexamphetamine VZ/F, Median): 13.7 L/kg | half-life ([2]; human, plasma, single oral dose 50 mg, read-out: lisdexamphetamine T1/2, Mean (converted)): 0.5 h | lisdexamphetamine AUCinfo, Max ([2]; single oral dose 50 mg): 95.6 ng·h/mL | lisdexamphetamine AUCinfo, Min ([2]; single oral dose 50 mg): 14.2 ng·h/mL | lisdexamphetamine AUClast, Max ([2]; single oral dose 50 mg): 94.3 ng·h/mL | lisdexamphetamine AUClast, Min ([2]; single oral dose 50 mg): 10.2 ng·h/mL | lisdexamphetamine CL/F, Geo Mean ([2]; single oral dose 50 mg): 1543 L/h | lisdexamphetamine CL/F, Max ([2]; single oral dose 50 mg): 3523.94 L/h | lisdexamphetamine CL/F, Mean ([2]; single oral dose 50 mg): 1701.28 L/h | lisdexamphetamine CL/F, Median ([2]; single oral dose 50 mg): 1504.94 L/h | lisdexamphetamine CL/F, Min ([2]; single oral dose 50 mg): 522.89 L/h | lisdexamphetamine Cmax, Max ([2]; single oral dose 50 mg): 82.37 ng/mL | lisdexamphetamine Cmax, Min ([2]; single oral dose 50 mg): 5.87 ng/mL | lisdexamphetamine T1/2, Geo Mean ([2]; single oral dose 50 mg): 0.5 h | lisdexamphetamine T1/2, Max ([2]; single oral dose 50 mg): 0.8 h | lisdexamphetamine T1/2, Min ([2]; single oral dose 50 mg): 0.3 h | lisdexamphetamine Tmax, Max ([2]; single oral dose 50 mg): 1.5 h | lisdexamphetamine Tmax, Min ([2]; single oral dose 50 mg): 1 h | lisdexamphetamine CL/F, Max [2, 6]: 660.7 mL/min/kg | lisdexamphetamine CL/F, Min [2, 6]: 115 mL/min/kg | lisdexamphetamine plasma concentration, Max ([2]; time 0, single oral dose 50 mg): 0 | lisdexamphetamine plasma concentration, Mean ([2]; time 0, single oral dose 50 mg): 0 | lisdexamphetamine plasma concentration, Median ([2]; time 0, single oral dose 50 mg): 0 | lisdexamphetamine plasma concentration, Min ([2]; time 0, single oral dose 50 mg): 0 | lisdexamphetamine plasma concentration, Max [2, 7]: 54.99 | lisdexamphetamine plasma concentration, Mean [2, 7]: 8.5483 | lisdexamphetamine plasma concentration, Median [2, 7]: 4.51 | lisdexamphetamine plasma concentration, Min [2, 7]: 0 | lisdexamphetamine plasma concentration, Max ([2]; time 1, single oral dose 50 mg): 82.37 | lisdexamphetamine plasma concentration, Mean ([2]; time 1, single oral dose 50 mg): 24.921 | lisdexamphetamine plasma concentration, Median ([2]; time 1, single oral dose 50 mg): 23.56 | lisdexamphetamine plasma concentration, Min ([2]; time 1, single oral dose 50 mg): 4.5 | lisdexamphetamine plasma concentration, Max [2, 8]: 41.42 | lisdexamphetamine plasma concentration, Mean [2, 8]: 17.7205 | lisdexamphetamine plasma concentration, Median [2, 8]: 15.72 | lisdexamphetamine plasma concentration, Min [2, 8]: 5.87 | lisdexamphetamine plasma concentration, Max ([2]; time 2, single oral dose 50 mg): 19.94 | lisdexamphetamine plasma concentration, Mean ([2]; time 2, single oral dose 50 mg): 9.0166 | lisdexamphetamine plasma concentration, Median ([2]; time 2, single oral dose 50 mg): 8.17 | lisdexamphetamine plasma concentration, Min ([2]; time 2, single oral dose 50 mg): 2.42 | lisdexamphetamine plasma concentration, Max ([2]; time 3, single oral dose 50 mg): 6.32 | lisdexamphetamine plasma concentration, Mean ([2]; time 3, single oral dose 50 mg): 1.8902 | lisdexamphetamine plasma concentration, Median ([2]; time 3, single oral dose 50 mg): 1.87 | lisdexamphetamine plasma concentration, Min ([2]; time 3, single oral dose 50 mg): 0 | lisdexamphetamine plasma concentration, Max ([2]; time 4, single oral dose 50 mg): 2.28 | lisdexamphetamine plasma concentration, Mean ([2]; time 4, single oral dose 50 mg): 0.2849 | lisdexamphetamine plasma concentration, Median ([2]; time 4, single oral dose 50 mg): 0 | lisdexamphetamine plasma concentration, Min ([2]; time 4, single oral dose 50 mg): 0 | lisdexamphetamine plasma concentration, Max ([2]; time 6, single oral dose 50 mg): 0 | lisdexamphetamine plasma concentration, Mean ([2]; time 6, single oral dose 50 mg): 0 | lisdexamphetamine plasma concentration, Median ([2]; time 6, single oral dose 50 mg): 0 | lisdexamphetamine plasma concentration, Min ([2]; time 6, single oral dose 50 mg): 0 | lisdexamphetamine plasma concentration, Max ([2]; time 8, single oral dose 50 mg): 0 | lisdexamphetamine plasma concentration, Mean ([2]; time 8, single oral dose 50 mg): 0 | lisdexamphetamine plasma concentration, Median ([2]; time 8, single oral dose 50 mg): 0 | lisdexamphetamine plasma concentration, Min ([2]; time 8, single oral dose 50 mg): 0 | lisdexamphetamine plasma concentration, Max [2, 9]: 0 | lisdexamphetamine plasma concentration, Mean [2, 9]: 0 | lisdexamphetamine plasma concentration, Median [2, 9]: 0 | lisdexamphetamine plasma concentration, Min [2, 9]: 0 | lisdexamphetamine plasma concentration, Max [2, 10]: 0 | lisdexamphetamine plasma concentration, Mean [2, 10]: 0 | lisdexamphetamine plasma concentration, Median [2, 10]: 0 | lisdexamphetamine plasma concentration, Min [2, 10]: 0 | lisdexamphetamine plasma concentration, Max [2, 11]: 0 | lisdexamphetamine plasma concentration, Mean [2, 11]: 0 | lisdexamphetamine plasma concentration, Median [2, 11]: 0 | lisdexamphetamine plasma concentration, Min [2, 11]: 0 | lisdexamphetamine plasma concentration, Max [2, 12]: 0 | lisdexamphetamine plasma concentration, Mean [2, 12]: 0 | lisdexamphetamine plasma concentration, Median [2, 12]: 0 | lisdexamphetamine plasma concentration, Min [2, 12]: 0 | lisdexamphetamine plasma concentration, Max [2, 13]: 0 | lisdexamphetamine plasma concentration, Mean [2, 13]: 0 | lisdexamphetamine plasma concentration, Median [2, 13]: 0 | lisdexamphetamine plasma concentration, Min [2, 13]: 0 | mean d-amphetamine plasma concentrations, alone compared with co-administration ([3]; FIG. 2): essentially identical | weight normalized CL/F, alone compared with combination ([3]; between the two treatments): essentially the same

Cl.N=C(N)NC(=O)Cc1c(Cl)cccc1Cl [guanfacine]
guanfacine Cmax in combination compared with alone [4]: higher than when administered alone | delayed response performance [5]: can be improved | metabolism by CYP3A4 (CYP3A4): known to be metabolized by CYP3A4
